This is an account of results in article PMC10894229, “Novel antimicrobial peptides against Cutibacterium acnes designed by deep learning” (Scientific Reports, 2024).

Read-outs that look alike come from different tables or passages of the source.

The assay deals with C. acnes (BNCC 336649). Particulars: for Concentration with antimicrobial activity >50%: C. acnes; for Concentration with antimicrobial activity >50% / Category of in vitro test antimicrobial activity against C. acnes: supplementary Table 5; for Antimicrobial activity > 50% against C. acnes: broth microdilution, 48 h, OD 630 nm. As to the method:
The strain of C. acnes (BNCC 336649) was cultured in Wilkins-Chalgren Anaerobe Broth (QingDao RiShui Bio-technologies, 11071) at 37 °C under an anaerobic atmosphere performed by a Labiophy HL-B automatic hypoxic workstation (Dalian, Liaoning Province, Labiophy HL-B), inflated with a gas mix of 15% carbon dioxide, 83% nitrogen, and 2% hydrogen.
Logarithmic phase growth bacteria were used for antimicrobial testing.
To determine the MIC values, the broth microdilution method was used. […] Briefly, peptide samples were prepared as a stock solution in water and then diluted. 180 μL of the bacterial suspension (10^7 CFU/mL) and 20 μL of the tested sample were added together into 96-Well Deep Well Plates and incubated 24 h for E. coli and S. aureus or 48 h for C. acnes and C. albicans. For each test, two columns of the plate were kept for sterility control (broth only) and growth control (broth with bacterial inoculums, no antibiotics). The optical density of cultures was measured at 630 nm by a microplate reader (SYNERGY-H1, BioTek, USA) to estimate bacterial growth. All experiments were conducted in triplicate. We used ciprofloxacin (CPFX) as the antibiotic control for antimicrobial testing.

Take AIHKLAHHIAKLAKK [AMP-35]: the “Concentration with antimicrobial activity >50%” value is “no” and the “Category of in vitro test antimicrobial activity against C. acnes” value (“Category” for short) was “No AMP”. Further, where the note is “at 25 µg/mL”, the “Antimicrobial activity > 50% against C. acnes” value is listed as “No (A peptide was deemed to have antimicrobial activity if C. acnes growth was inhibited by more than 50% at a given concentration)”. Moreover, the “Antimicrobial activity > 50% against C. acnes” value (at 50 µg/mL) is recorded as “No (A peptide was deemed to have antimicrobial activity if C. acnes growth was inhibited by more than 50% at a given concentration)”. In addition, the “Antimicrobial activity > 50% against C. acnes” value (at 100 µg/mL) is reported as “No (A peptide was deemed to have antimicrobial activity if C. acnes growth was inhibited by more than 50% at a given concentration)”.

With AKKALKAAAKIIKWL [AMP-19], the “Concentration with antimicrobial activity >50%” value turned out to be 25 µg/mL and the “Category” value is on record as “Medium AMP”. Further, where the note is “at 25 µg/mL”, the “Antimicrobial activity > 50% against C. acnes” value was “Inhibit (A peptide was deemed to have antimicrobial activity if C. acnes growth was inhibited by more than 50% at a given concentration)”. For the same sequence, the “Antimicrobial activity > 50% against C. acnes” value (at 50 µg/mL) was “Inhibit (A peptide was deemed to have antimicrobial activity if C. acnes growth was inhibited by more than 50% at a given concentration)”. For the same sequence, the “Antimicrobial activity > 50% against C. acnes” value (at 100 µg/mL) is “Inhibit (A peptide was deemed to have antimicrobial activity if C. acnes growth was inhibited by more than 50% at a given concentration)”.

ALIKKLERTLRKAI [AMP-37]: the “Concentration with antimicrobial activity >50%” value is reported as “no” and the “Category” value is “No AMP”. Besides, the “Antimicrobial activity > 50% against C. acnes” value (at 25 µg/mL) is recorded as “No (A peptide was deemed to have antimicrobial activity if C. acnes growth was inhibited by more than 50% at a given concentration)”. In addition, the “Antimicrobial activity > 50% against C. acnes” value (at 50 µg/mL) was “No (A peptide was deemed to have antimicrobial activity if C. acnes growth was inhibited by more than 50% at a given concentration)”. Moreover, where the note is “at 100 µg/mL”, the “Antimicrobial activity > 50% against C. acnes” value is recorded as “No (A peptide was deemed to have antimicrobial activity if C. acnes growth was inhibited by more than 50% at a given concentration)”.

CKAVLRWVSRLKKL [AMP-39]: the “Concentration with antimicrobial activity >50%” value was found to be 25 µg/mL and the “Category” value is on record as “Medium AMP”. Besides, where the note is “at 25 µg/mL”, the “Antimicrobial activity > 50% against C. acnes” value was “Inhibit (A peptide was deemed to have antimicrobial activity if C. acnes growth was inhibited by more than 50% at a given concentration)”. Under “at 50 µg/mL”, the “Antimicrobial activity > 50% against C. acnes” value is given as “Inhibit (A peptide was deemed to have antimicrobial activity if C. acnes growth was inhibited by more than 50% at a given concentration)”. Also, for the setting “at 100 µg/mL”, the “Antimicrobial activity > 50% against C. acnes” value is on record as “Inhibit (A peptide was deemed to have antimicrobial activity if C. acnes growth was inhibited by more than 50% at a given concentration)”.

With DALRALHHLLKRAL [AMP-42], the “Concentration with antimicrobial activity >50%” value is recorded as “no” and the “Category” value was “No AMP”. The “Antimicrobial activity > 50% against C. acnes” value (at 25 µg/mL) is recorded as “No (A peptide was deemed to have antimicrobial activity if C. acnes growth was inhibited by more than 50% at a given concentration)”. Besides, the “Antimicrobial activity > 50% against C. acnes” value (at 50 µg/mL) was “No (A peptide was deemed to have antimicrobial activity if C. acnes growth was inhibited by more than 50% at a given concentration)”. Besides, the “Antimicrobial activity > 50% against C. acnes” value (at 100 µg/mL) was “No (A peptide was deemed to have antimicrobial activity if C. acnes growth was inhibited by more than 50% at a given concentration)”.

As to FKRLQKLLFTLKQK [AMP-40], the “Concentration with antimicrobial activity >50%” value is “no” and the “Category” value is on record as “No AMP”. Moreover, the “Antimicrobial activity > 50% against C. acnes” value (at 25 µg/mL) is given as “No (A peptide was deemed to have antimicrobial activity if C. acnes growth was inhibited by more than 50% at a given concentration)”. For the setting “at 50 µg/mL”, the “Antimicrobial activity > 50% against C. acnes” value was “No (A peptide was deemed to have antimicrobial activity if C. acnes growth was inhibited by more than 50% at a given concentration)”. For the same sequence, the “Antimicrobial activity > 50% against C. acnes” value (at 100 µg/mL) was “No (A peptide was deemed to have antimicrobial activity if C. acnes growth was inhibited by more than 50% at a given concentration)”.

On to FLGQLKNFFKKLAS [AMP-7], for which the “Category” value is reported as “Medium AMP”. Besides, the “Antimicrobial activity > 50% against C. acnes” value (at 25 µg/mL) is recorded as “No (A peptide was deemed to have antimicrobial activity if C. acnes growth was inhibited by more than 50% at a given concentration)”. The “Antimicrobial activity > 50% against C. acnes” value (at 50 µg/mL) is “Inhibit (A peptide was deemed to have antimicrobial activity if C. acnes growth was inhibited by more than 50% at a given concentration)”. The “Antimicrobial activity > 50% against C. acnes” value (at 100 µg/mL) is recorded as “Inhibit (A peptide was deemed to have antimicrobial activity if C. acnes growth was inhibited by more than 50% at a given concentration)”.

FLKKLRTAVLKLTKG [AMP-17]: the “Concentration with antimicrobial activity >50%” value turned out to be 25 µg/mL and the “Category” value was “Medium AMP”. For the same sequence, the “Antimicrobial activity > 50% against C. acnes” value (at 25 µg/mL) is recorded as “Inhibit (A peptide was deemed to have antimicrobial activity if C. acnes growth was inhibited by more than 50% at a given concentration)”. For the setting “at 50 µg/mL”, the “Antimicrobial activity > 50% against C. acnes” value is “Inhibit (A peptide was deemed to have antimicrobial activity if C. acnes growth was inhibited by more than 50% at a given concentration)”. For the same sequence, the “Antimicrobial activity > 50% against C. acnes” value (at 100 µg/mL) is listed as “Inhibit (A peptide was deemed to have antimicrobial activity if C. acnes growth was inhibited by more than 50% at a given concentration)”.

As for GFKRIVHRLTKWLA [AMP-11], the “Concentration with antimicrobial activity >50%” value was determined as 12.5 µg/mL and the “Category” value is given as “Strong AMP”. Besides, where the note is “at 25 µg/mL”, the “Antimicrobial activity > 50% against C. acnes” value is listed as “Inhibit (A peptide was deemed to have antimicrobial activity if C. acnes growth was inhibited by more than 50% at a given concentration)”. The “Antimicrobial activity > 50% against C. acnes” value (at 50 µg/mL) is on record as “Inhibit (A peptide was deemed to have antimicrobial activity if C. acnes growth was inhibited by more than 50% at a given concentration)”. In addition, the “Antimicrobial activity > 50% against C. acnes” value (at 100 µg/mL) is given as “Inhibit (A peptide was deemed to have antimicrobial activity if C. acnes growth was inhibited by more than 50% at a given concentration)”.

As to GIGALVKFLPKLFK [AMP-41], the “Concentration with antimicrobial activity >50%” value is 25 µg/mL and the “Category” value is “Medium AMP”. Besides, the “Antimicrobial activity > 50% against C. acnes” value (at 25 µg/mL) is “Inhibit (A peptide was deemed to have antimicrobial activity if C. acnes growth was inhibited by more than 50% at a given concentration)”. Further, the “Antimicrobial activity > 50% against C. acnes” value (at 50 µg/mL) is “Inhibit (A peptide was deemed to have antimicrobial activity if C. acnes growth was inhibited by more than 50% at a given concentration)”. Further, the “Antimicrobial activity > 50% against C. acnes” value (at 100 µg/mL) was “Inhibit (A peptide was deemed to have antimicrobial activity if C. acnes growth was inhibited by more than 50% at a given concentration)”.

For GKLKKIWKNFGKIIK [AMP-20], the “Concentration with antimicrobial activity >50%” value is 25 µg/mL and the “Category” value is “Medium AMP”. Moreover, the “Antimicrobial activity > 50% against C. acnes” value (at 25 µg/mL) is “Inhibit (A peptide was deemed to have antimicrobial activity if C. acnes growth was inhibited by more than 50% at a given concentration)”. Also, the “Antimicrobial activity > 50% against C. acnes” value (at 50 µg/mL) is given as “Inhibit (A peptide was deemed to have antimicrobial activity if C. acnes growth was inhibited by more than 50% at a given concentration)”. Also, the “Antimicrobial activity > 50% against C. acnes” value (at 100 µg/mL) is recorded as “Inhibit (A peptide was deemed to have antimicrobial activity if C. acnes growth was inhibited by more than 50% at a given concentration)”.

As for GLTLLKKFLHAAKKF [AMP-23], the “Concentration with antimicrobial activity >50%” value is 25 µg/mL and the “Category” value is “Medium AMP”. Also, the “Antimicrobial activity > 50% against C. acnes” value (at 25 µg/mL) was “Inhibit (A peptide was deemed to have antimicrobial activity if C. acnes growth was inhibited by more than 50% at a given concentration)”. In addition, for the setting “at 50 µg/mL”, the “Antimicrobial activity > 50% against C. acnes” value is “Inhibit (A peptide was deemed to have antimicrobial activity if C. acnes growth was inhibited by more than 50% at a given concentration)”. Further, the “Antimicrobial activity > 50% against C. acnes” value (at 100 µg/mL) is listed as “Inhibit (A peptide was deemed to have antimicrobial activity if C. acnes growth was inhibited by more than 50% at a given concentration)”.

Turning to GLVSRLRRLVTPLL [AMP-4], the “Category” value was “Medium AMP”. In addition, where the note is “at 25 µg/mL”, the “Antimicrobial activity > 50% against C. acnes” value is “No (A peptide was deemed to have antimicrobial activity if C. acnes growth was inhibited by more than 50% at a given concentration)”. Also, where the note is “at 50 µg/mL”, the “Antimicrobial activity > 50% against C. acnes” value is recorded as “Inhibit (A peptide was deemed to have antimicrobial activity if C. acnes growth was inhibited by more than 50% at a given concentration)”. Moreover, under “at 100 µg/mL”, the “Antimicrobial activity > 50% against C. acnes” value is “Inhibit (A peptide was deemed to have antimicrobial activity if C. acnes growth was inhibited by more than 50% at a given concentration)”.

As for KAIAALAKKIIKVAK [AMP-24], the “Concentration with antimicrobial activity >50%” value was “no” and the “Category” value was “No AMP”. For the setting “at 25 µg/mL”, the “Antimicrobial activity > 50% against C. acnes” value is reported as “No (A peptide was deemed to have antimicrobial activity if C. acnes growth was inhibited by more than 50% at a given concentration)”. For the same sequence, the “Antimicrobial activity > 50% against C. acnes” value (at 50 µg/mL) is listed as “No (A peptide was deemed to have antimicrobial activity if C. acnes growth was inhibited by more than 50% at a given concentration)”. Under “at 100 µg/mL”, the “Antimicrobial activity > 50% against C. acnes” value is given as “No (A peptide was deemed to have antimicrobial activity if C. acnes growth was inhibited by more than 50% at a given concentration)”.
